Data set [1] relates to contracted strips of the rats' arota. The data set is described as follows: relaxing potency in vitro on phenylefrine-contracted strips of rat aorta. Particulars: read-out: EC50 (concentration with which relaxation took place up to 50% of the contraction induced by 10^-7 M phenylefrine). It is filed as cell-based, rat (male Wistar). The procedure:
The relaxing potency of the compounds as described is tested in vitro on contracted strips of the rats' arota. Male Wistar rates (200-220 g) are killed by decapitation. The thoracal aorta is removed and is helically cut into strips (length: ±10 mm, width: ±2 mm; 4 strips per rat).
The strips are suspended in organ baths filled with 20 ml of Krebs' medium with a constant temperature of 37° C. passing through O2 /CO2 (95/5) and subsequently for 2 h equilibrated under an isotonic load of 500 mg. The medium is renewed every 20 minutes.
After equilibration contraction takes place by addition of 10^-7M phenylefrine to the medium. After reaching the maximal contraction the composition with the organic nitrate ester to be tested in cumulative concentration steps is relaxed.
The degree of relaxation is expressed as a percentage of the maximal contraction (=100%) reached with 10^-7 M phenylefrine. The relaxing potency of the tested compounds is expressed as the EC50 : the concentration with which relaxation took place up to 50% of the contraction induced by 10^-7 M phenylefrine. From a number of compounds the EC50 -values have been stated in Table 1. For comparison the EC50 -values of glyceryltrinitrate and isosorbidedinitrate have also been included.

The next data set concerns heart. Particulars: therapeutical use; cited from earlier work.
The conditions of data set [2]: chronical administration, clinical; cited from earlier work.

Structures are written as SMILES. Like-named read-outs stand apart in the source and are kept apart here.

With `O=[N+]([O-])OC(Cc1ccccc1)Cc1ccccc1` [Compound 23, 1,3-diphenyl-2-propanol nitrate], in data set [1] (Rattus norvegicus), the EC50 turned out to be 400 nM.

Turning to `O=[N+]([O-])OCC(CO[N+](=O)[O-])c1ccc2ccccc2c1` [Compound 10, 2-(2-naphthyl)-1,3-propanediol nitrate], the EC50 in data set [1] (Rattus norvegicus) was determined as 13 nM. Still for that read-out and setting: for `O=[N+]([O-])O[C@@H]1CO[C@H]2[C@@H]1OC[C@@H]2OC(c1ccccc1)c1ccccc1` [Compound 28, 2-diphenylmethyl-1,4:3,6-dianhydroglucitol nitrate] the value was 200 nM. As for `O=[N+]([O-])OCCc1ccccc1` [Compound 1, 2-phenylethanol nitrate], in data set [1], the EC50 amounted to 120 nM. As for `O=[N+]([O-])OCC(CO[N+](=O)[O-])O[N+](=O)[O-]` [glyceryl trinitrate], in data set [1] (rat thoracal aorta strips, contracted with 10^-7 M phenylefrine, cumulative concentrations, 37° C.), the EC50 came out at 7.3 nM. In the data set with heart, the “need of oxygen to the heart” value was “lower need of oxygen to the heart”; the “post-load of the heart” value is listed as “also affected, be it to a lower extent”; the “pre-load of the heart” value is recorded as “diminish especially the pre-load of the heart”. The development of tolerance result in data set [2] is “development of so-called tolerance”. `O=[N+]([O-])OCCc1cccc2ccccc12` [Compound 9, 2-(1-naphthyl)ethanol nitrate]: the EC50 in data set [1] (Rattus norvegicus) turned out to be 4.2 nM. Regarding `Cc1c(C)c(CCO[N+](=O)[O-])c(C)c(C)c1CCO[N+](=O)[O-]` [Compound 12, 1,4-bis(2-nitroxyethyl)-2,3,5,6-tetramethylbenzene], in data set [1] (Rattus norvegicus), the EC50 stood at 78 nM.

Take `O=[N+]([O-])OCCOC(c1ccccc1)c1ccccc1` [Compound 25, 2-diphenylmethoxyethanol nitrate]: in data set [1] (Rattus norvegicus), the EC50 amounted to 250 nM.

`O=[N+]([O-])OCCc1ccc(CCO[N+](=O)[O-])cc1` [Compound 11, 1,4-bis(2-nitroxyethyl)benzene]: the EC50 in data set [1] (Rattus norvegicus) amounted to 4.6 nM.

These data come from patent publication US5049694A, “Pharmaceutical composition having relaxing activity which contains a nitrate ester as active substance” (Cedona Pharmaceuticals B.V., priority 1988, dated 1991).
